In test [1] the test system is Glucose dehydrogenase (immobilized enzyme). To be noted: substrate glucose, NADP; 1M additive/buffer pH 7.0; 25° C. for 30 minutes.
Description: (§1) The solution was stirred at 25° C. for 30 minutes to allow the enzyme to react with the substrate. Then, WST1 and mPMS were added for color development. Absorbance was measured with a spectrophotometer.
For test [2], the system named is Glutamate dehydrogenase (immobilized enzyme). Conditions: substrate monosodium glutamate, NADP; 1M additive/buffer pH 7.0; 25° C. for 30 minutes.
Description: as §1
For test [3], the system named is Formate dehydrogenase (immobilized enzyme). Conditions: substrate sodium formate, NAD; 1M additive/buffer pH 7.0; 25° C. for 30 minutes.
Description: as §1
The test system is the same in test [4]. In words: Effects of heterocyclic compounds on activity of immobilized formate dehydrogenase (WST1/mPMS, absorbance), Examples 4-8. To be noted: for enzyme activity of immobilized enzyme in the presence of the heterocyclic compound (in words): immobilized formate dehydrogenase, Examples 4-8. Background: Formazan colour is commonly taken as a measure of viable cells.
Description: A support was applied a fibrous base material cut in pieces 1 cm^2 in area, followed by drying. Each piece of fibrous base material was allowed to absorb a liquid obtained by mixing 2.5% glutaraldehyde, 20% poly-L-lysine, 10 mM Tris-HCl (pH 8.0), and formate dehydrogenase, followed by drying. Thus, immobilized enzymes were prepared.
The solution was stirred at 25° C. for 30 minutes to induce a reaction. Then, WST1 and mPMS were added for color development. Absorbance was measured with a spectrophotometer (Infinite M200 manufactured by TECAN).

The results in this text go back to patent US10490837B2, “Bioreactor comprising immobilized enzyme, method for improving activity of immobilized enzyme, and biofuel cell” (TOYOTA JIDOSHA KABUSHIKI KAISHA, priority 2012, dated 2019).

Entries after “also recorded” stand apart in the source; their conditions may differ. Like-named read-outs stand apart in the source and are kept apart here.

`Cl.c1c[nH]cn1` [Example 1, imidazole HCl] yielded an OD in test [1] of 0.4668.

In test [2], `Cl.c1c[nH]cn1` [Example 2, imidazole HCl] returned an OD of 1.1707.

As for `Cl.c1c[nH]cn1` [Example 3, imidazole HCl], the OD in test [3] is 0.5996.

Take `c1cnccn1` [Example 4, Pyrazine]: the “enzyme activity of immobilized enzyme in the presence of the heterocyclic compound (in words)” value (“enzyme activity of immobilized enzyme” below) in test [4] was “excellent enzyme activity; also recorded: significantly improved enzyme activity”.

For the compound `O=C1NCCN1` [Example 5, 2-Imidazolidinone], the “enzyme activity of immobilized enzyme” value in test [4] is given as “excellent enzyme activity; also recorded: significantly improved enzyme activity”.

Regarding `C=Cn1ccnc1` [Example 6, 1-Vinylimidazole], the “enzyme activity of immobilized enzyme” value in test [4] is listed as “excellent enzyme activity; also recorded: significantly improved enzyme activity”.

`N[C@@H](Cc1c[nH]cn1)C(=O)O` [Example 8, Histidine] displayed an OD in test [4] (0.2M heterocyclic compound, 25° C. for 30 minutes) of 1.1902. Besides, the “enzyme activity of immobilized enzyme” value in test [4] is given as “excellent enzyme activity”.

For “sodium phosphate buffer [Comparative Example 1, reference compound]”, the OD in test [1] was determined as 0.1598.

Take “sodium phosphate buffer [Comparative Example 3, reference compound]”: the OD in test [3] is reported as 0.4134.

In the case of “sodium phosphate buffer [reference compound]”, the OD in test [2] is on record as 0.3966.
